From patent publication US11708375B2, “Reagents for reversibly protecting biological molecules” (BIOMÉRIEUX, priority 2016, dated 2023) come the findings set out here.

One series deals with T1, Human hemoglobin (Homo sapiens, UniProt P68871+P69905).
T1 construct: purchased Sigma H7379
Nature of the series: Reversible acylation of hemoglobin by compound 13 (HPLC profile). In kind it is biochemical. Here is the method:
The mixtures are created as described below, where experiments AL600 1× to AL 600 0.25× respectively correspond to 33 μg hemoglobin reacted with increasing concentrations of the azaisatoic compound in a mixture of DMSO and PBS at pH 7.4 (PBS=Phosphate buffered saline resulting from dissolving a tablet, reference Sigma P4417, in 200 ml water (pH 7.4)) The mixtures are incubated at room temperature for 2 hours before collecting an aliquot for HPLC analysis on a Waters XBridge BEH C4 300 column (Milford. USA), with a gradient of 20 to 72% acetonitrile in a solution of 10 mM trifluoroacetic acid, at 120 min.
One can clearly see, as before, that acylation of the hemoglobin leads to formation of a mass of acylated protein and then this mass disappears after heat treatment in order to regenerate the native protein.

The next series has as its target T2, Taq polymerase (Thermus aquaticus, UniProt P19821).
T2 construct: purchased Genscript E00012
Nature of the series: Polymerase activity of TAQ modified by compound 13 (hairpin probe elongation fluorescence). Format: biochemical. As to conditions: AL 604 0.375x. Here is the method: We used the Genscript Taq (2500 u/100 μl REF E00012), but in order to eliminate all traces of nucleophiles in this enzyme we did a change of buffer beforehand by passing through an Amicon 10 KD microcon (no. 42407). The enzyme suspension was thus deposited on the microcon and centrifuged until buffer depletion Five washes were performed with […] PBS pH 7.4, then the last retentate was recovered by inverting the tube and made up to QSP 20 μl with PBS to obtain a suspension at 125 u/μl. […]
The polymerization activity of the TAQ polymerase is determined using an oligonucleotide probe of 45 bases terminated by a “hairpin” structure. This is characterized by the presence of a fluorescence quencher at the beginning of the structure and a fluorophore at the end of the probe sequence, such that the quencher is spatially close to the fluorophore and no fluorescence signal can be measured in this configuration. […] Due to the elongation action, the probe hairpin structure is unfolded and the fluorophore is able to emit, and fluorescence is then measurable. This fluorescence measurement is carried out at a temperature of 60° C. for 20 minutes in the presence of the reagents required for activity of the enzyme, meaning dNTP, MgCl2, and a basic buffer at pH 9.5. […]
The ability to restore the activity of the enzyme after heating for 15 min at 95° C. for example is readily measurable by the same method.

A short description of series [1]: Cleavage at 95° C. of aza-anthranilate amides and release of phenylethylamine under hot start PCR conditions (LCMS/HPLC monitoring). In kind it is physicochemical. As to conditions: 60 mM Tris pH 9 PCR buffer. As for the experimental part:
Into a 1.5 mL tube are added: 20 μL 2.5 mM amide solution (10, 14 or 19) in DMSO and 180 μL of a buffer conventionally used in a genetic material amplification reaction (60 mM Tris pH 9, 50 mM […], 1 mM MgCl2). The mixture is then stirred at 95° C. in a thermomixer. LCMS monitoring (condition 1) is performed at t=15 min, 30 min, and 1 h
Thermal deprotection of the phenoxyacetate group leads to formation of the corresponding benzyl alcohol (see Diagram 7). The nucleophilic attack of alcohol on the carbonyl involved in the amide bond then allows releasing the phenylethylamine into the medium by generating the corresponding lactone.
This derivative can then be cyclized to form the corresponding […] by releasing phenylethylamine into the medium (Diagram 9 above).

T2 sequence (P19821 whole entry): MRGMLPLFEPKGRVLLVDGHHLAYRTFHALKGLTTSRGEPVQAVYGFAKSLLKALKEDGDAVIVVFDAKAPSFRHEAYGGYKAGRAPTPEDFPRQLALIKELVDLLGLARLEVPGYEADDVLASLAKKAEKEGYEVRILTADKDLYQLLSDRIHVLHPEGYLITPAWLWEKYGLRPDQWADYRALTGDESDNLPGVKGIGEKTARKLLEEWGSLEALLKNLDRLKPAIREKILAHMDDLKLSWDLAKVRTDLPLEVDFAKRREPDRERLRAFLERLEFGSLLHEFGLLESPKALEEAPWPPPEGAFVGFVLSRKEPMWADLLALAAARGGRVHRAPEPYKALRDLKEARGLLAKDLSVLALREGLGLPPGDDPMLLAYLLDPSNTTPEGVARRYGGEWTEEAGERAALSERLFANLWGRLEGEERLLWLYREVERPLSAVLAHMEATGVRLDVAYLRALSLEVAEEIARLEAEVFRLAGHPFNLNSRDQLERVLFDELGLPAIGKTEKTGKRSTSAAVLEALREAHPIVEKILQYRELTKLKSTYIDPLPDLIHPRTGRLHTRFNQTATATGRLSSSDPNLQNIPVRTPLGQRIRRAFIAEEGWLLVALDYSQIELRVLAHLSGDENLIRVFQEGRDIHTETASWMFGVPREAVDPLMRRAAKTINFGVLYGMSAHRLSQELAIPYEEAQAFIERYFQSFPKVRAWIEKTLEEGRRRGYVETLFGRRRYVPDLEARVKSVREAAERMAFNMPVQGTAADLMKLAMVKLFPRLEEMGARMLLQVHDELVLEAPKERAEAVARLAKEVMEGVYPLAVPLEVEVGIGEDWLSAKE
T1 sequence (P69905 2-142 limits assumed): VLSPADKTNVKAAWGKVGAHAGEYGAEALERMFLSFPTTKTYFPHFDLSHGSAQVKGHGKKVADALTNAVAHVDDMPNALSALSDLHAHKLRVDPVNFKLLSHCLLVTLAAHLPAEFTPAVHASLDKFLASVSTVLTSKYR
T1 sequence (P68871 2-147 limits assumed): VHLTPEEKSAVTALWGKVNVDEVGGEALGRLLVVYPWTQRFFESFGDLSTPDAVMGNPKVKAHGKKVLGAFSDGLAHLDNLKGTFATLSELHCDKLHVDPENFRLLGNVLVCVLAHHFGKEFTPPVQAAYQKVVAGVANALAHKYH

As to `Cn1c(=O)oc(=O)c2c(COC(=O)COc3ccc(F)cc3)c(I)cnc21` [compound 13, (6-iodo-1-methyl-2,4-dioxo-2,4-dihydro-1H-pyrido[2,3-d][1,3]oxazine-5-yl) methyl 2-(4-fluorophenoxy)acetate], at Human hemoglobin (33 μg hemoglobin, AL 600 0.25x-1x, DMSO/PBS pH 7.4, room temperature, 2 hours), the “acylation of hemoglobin (HPLC chromatogram)” value is “disappearance of the protein portion in favor of a massive shift to the right”. Also, the “reversal of the acylation of hemoglobin after heat treatment (HPLC chromatogram)” value on Human hemoglobin (AL 600 1x, 95° C. for 15 min in PCR buffer (Tris pH9), taken up in 8M GuHCl) is recorded as “restoring the chromatographic profile of the native hemoglobin”. Moreover, on Taq polymerase (625 units Taq, DMSO/PBS pH 7.4, 3 hours room temperature, measured at 60° C. for 20 minutes), the “polymerase activity of Taq after acylation, without activation” value is listed as “completely inactivated”. Further, on Taq polymerase (after treatment at 95° C. for 15 min under hot start PCR conditions), the “polymerase activity of Taq after acylation and heat activation” value was “restored”.

Take `CNc1ncc(I)c(COC(=O)COc2ccc(F)cc2)c1C(=O)NCCc1ccccc1` [derivative 14, (5-iodo-2-(methylamino)-3-(phenethylcarbamoyl)pyridine-4-yl)methyl 2-(4-fluorophenoxy)acetate]: the amide population entry in series [1] (15 minutes at 95° C.) is listed as “very low”; in series [1] (30 minutes at 95° C.) it was “almost completely disappeared”.

As to `CNc1ncc(I)c(COC(=O)COc2ccccc2)c1C(=O)NCCc1ccccc1` [derivative 10, (5-iodo-2-(methylamino)-3-(phenethylcarbamoyl)pyridine-4-yl)methyl 2-phenoxyacetate], in series [1] (15 minutes at 95° C., 10% DMSO), the “species observed by HPLC after heating (cleavage of the amide derivative)” value was “formation of the deprotected alcohol and the expected lactone”. In addition, the “population of the initial amide and the alcohol” value in series [1] (1 h at 95° C.) is given as “almost completely disappeared”.

As for `CNc1ncc(I)c(CNC(=O)OC(C)(C)C)c1C(=O)NCCc1ccccc1` [derivative 19, tert-butyl ((5-iodo-2-(methylamino)-3-(phenethylcarbamoyl)pyridine-4-yl)methyl)carbamate], the “non-cyclized deprotected form (intermediate amine) on HPLC monitoring” value in series [1] (95° C.) is “not detected”.
